Values of other authors as cited in patent publication US20080262086A1, “SUBSTITUTED ANTHRANILIC ACIDS” (AUSPEX PHARMACEUTICALS, INC., priority 2007, published 2008).

Experiments:
[1] = short half-life of bumetanide, background
[2] = test system: reabsorption of sodium, potassium, and chloride; details: times more potent than furosemide

CCCCNc1cc(C(=O)O)cc(S(N)(=O)=O)c1Oc1ccccc1 [Bumetanide, 3-Butylamino-4-phenoxy-5-sulfamoyl-benzoic acid]
half-life [1]: 1 to 1.5 h
potency relative to furosemide [2]: approximately 40 times
